Measured values: US12215106B2, “Pharmaceutical compounds and therapeutic methods” (RUTGERS, THE STATE UNIVERSITY OF NEW JERSEY, priority 2018, dated 2025)
Where a name gives a salt, the structure may show the parent alone. Read-outs that look alike come from different tables or passages of the source.

Experiment: Plasma pharmacokinetics and brain distribution after single IV, IP and oral administration
Format: in vivo
Conditions: male, C57BL/6, mouse
Protocol: The objective of this study was to investigate the plasma pharmacokinetics and brain distribution of Compound (14 in male C57BL/6 mice following a single intravenous, intraperitoneal and oral administration. A group of sixty-three male mice were divided into three groups (Group 1: 2 mg/kg/IV; Group 2: 10 mg/kg/IP and Group 3: 10 mg/kg/PO) with each group comprising of twenty-one mice.
Animals in Group 1 were administered intravenously with Compound 15 solution formulation in 5% NMP, 5% Solutol HS-15, 30% PEG-400 and 60% Captisol (20% w/v) at 2 mg/kg dose. […] Considering mortality intravenous dose was reduced to 2 mg/kg.
Animals in Group 2 and 3 were administered with Compound 15 solution formulation in 5% NMP, 5% Solutol HS-15, 30% PEG-400 and 60% Captisol (20% w/v) at a dose of 10 mg/kg by intraperitoneal and oral route respectively.
(§1) Blood samples (approximately 60 μL) were collected under light isoflurane anesthesia from retro orbital plexus from a set of three mice at 0.08, 0.35, 1, 3, 6, 12 and 24 hr. Plasma samples were separated by centrifugation of whole blood and stored below −70±10° C. until bioanalysis. Immediately after collection of blood, brain samples were collected from set of three mice at each time point. Brain samples were homogenized using ice-cold phosphate buffer saline (pH-7.4) in a ratio of 2 (buffer):1(brain); and homogenates were stored below −70±10° C. until analysis. Total homogenate volume was three times the brain weight. All samples were processed for analysis by protein precipitation using acetonitrile and analyzed with fit-for-purpose LC/MS/MS method (LLOQ2.00 ng/mL for plasma and 3.00 ng/g for brain). Pharmacokinetic parameters were calculated using the non-compartmental analysis tool of Phoenix WinNonlin® (Version 7.0). Pharmacokinetic parameters of Compound 15 are summarized below.
The objective of this study was to investigate the plasma pharmacokinetics and brain distribution of Compound 16 in male C57BL/6 mice following a single intravenous, intraperitoneal and oral administration. A group of sixty-three male mice were divided into three groups (Group 1: 10 mg/kg/IV; Group 2: 10 mg/kg/IP and Group 3: 10 mg/kg/PO) with each group comprising of twenty-one mice.
Animals in Group 1 were administered intravenously with Compound 16 solution formulation in 5% NMP, 5% Solutol HS-15 and 90% normal saline at 10 mg/kg dose.
Animals in Group 2 and 3 were administered with Compound 16 solution formulation in 5% NMP, 5% Solutol HS-15 and 90% normal saline at a dose of 10 mg/kg by intraperitoneal and oral route respectively.
as §1, with “(LLOQ—1.00” for “(LLOQ2.00”, “16” for “15”
The objective of this study was to investigate the plasma pharmacokinetics and brain distribution of Compound 17 in male C57BL/6 mice following a single intravenous, intraperitoneal and oral administration. A group of sixty-three male mice were divided into three groups (Group 1: 2 mg/kg/IV; Group 2: 10 mg/kg/IP and Group 3: 10 mg/kg/PO) with each group comprising of twenty-one mice. […]

[1] = brain, ip, 10 mg/kg, IP 10 mg/kg, read-out: Brain-to-plasma ratio
[2] = brain, po, 10 mg/kg, PO 10 mg/kg, read-out: Brain-to-plasma ratio
[3] = in vivo, ip, 10 mg/kg, Brain concentration, individual animal
[4] = in vivo, ip, 10 mg/kg, Mean brain conc.
[5] = in vivo, ip, 10 mg/kg, Mean plasma conc.
[6] = in vivo, ip, 10 mg/kg, Plasma concentration, individual animal
[7] = in vivo, iv, 2 mg/kg, Brain concentration, individual animal

With `[2H]C([2H])([2H])Oc1ccc(Nc2nc(-c3c(C)nc4ccccn34)cs2)cc1` [Compound 15, N-(4-(methoxy-d3)phenyl)-4-(2-methylimidazo[1,2-c]pyridin-3-yl)thiazol-2-amine hydrochloride] the Kp at 0.08 h [1] was 0.19, the Kp at 0.35 h [1] was 0.63 and the Kp at 1 h [1] was 0.75. For the same molecule, the Kp at 3 h [1] was 0.36, the Kp at 6 h [1] was 0.38 and the Kp (brain, ip, 10 mg/kg, IP 10 mg/kg, read-out: brain-to-plasma ratio, range over time) was 0.19 to 0.75. For the same molecule, the Kp (brain, iv, 2 mg/kg, IV 2 mg/kg, read-out: brain-to-plasma ratio, range over time) was 1.17 to 1.64, the Kp at 0.08 h [2] was 0.1 and the Kp at 0.35 h [2] was 0.41. It also gave a Kp at 1 h [2] of 1.03, a Kp at 3 h [2] of 0.7 and a Kp at 6 h [2] of 0.6. The Kp at 12 h (brain, po, 10 mg/kg, PO 10 mg/kg, 12 hr, read-out: Brain-to-plasma ratio) was 0.62, the Kp (brain, po, 10 mg/kg, PO 10 mg/kg, read-out: brain-to-plasma ratio, range over time) was 0.1 to 1.03 and the Kp (brain, po, 10 mg/kg, summary data, read-out: Brain to plasma ratio following a single oral dose) was 1.03. For the same molecule, the “Brain concentrations quantifiable up to” value (in vivo, ip, 10 mg/kg) was “up to 6 hr”, the “Plasma concentrations quantifiable up to” value (in vivo, ip, 10 mg/kg) was “up to 6 hr” and the “Brain concentration, individual animal” value (in vivo, ip, 10 mg/kg, 12 h) was 0.00 ng/g. The “Plasma concentration, individual animal” value (in vivo, ip, 10 mg/kg, 12 h) was 0.00 ng/mL, the “Brain concentration, individual animal” value (in vivo, ip, 10 mg/kg, 24 h) was 0.00 ng/g and the “Plasma concentration, individual animal” value (in vivo, ip, 10 mg/kg, 24 h) was 0.00 ng/mL. The concentration at 0.08 h [3] was 38.4 ng/g, the concentration at 0.35 h [3] was 287 ng/g and the concentration at 1 h [3] was 383 ng/g. For the same molecule, the concentration at 3 h [3] was 48.4 ng/g, the concentration at 12 h [3] was 0 ng/g and the concentration at 24 h [3] was 0 ng/g. For the same molecule, the concentration at 0.08 h [4] was 43.6 ng/g, the concentration at 0.35 h [4] was 266 ng/g and the concentration at 1 h [4] was 305 ng/g. It also gave a concentration at 3 h [4] of 57.7 ng/g, a concentration at 6 h [4] of 6.06 ng/g and a concentration at 12 h [4] of 0 ng/g. The concentration at 24 h [4] was 0 ng/g, the concentration at 0.08 h [5] was 229 ng/mL and the concentration at 0.35 h [5] was 422 ng/mL. It also gave a concentration at 1 h [5] of 409 ng/mL, a concentration at 3 h [5] of 160 ng/mL and a concentration at 6 h [5] of 16.1 ng/mL. It also gave a concentration at 12 h [5] of 0 ng/mL, a concentration at 24 h [5] of 0 ng/mL and a concentration at 0.08 h [6] of 228 ng/mL. The concentration at 0.35 h [6] was 467 ng/mL, the concentration at 1 h [6] was 563 ng/mL and the concentration at 3 h [6] was 174 ng/mL. The concentration at 12 h [6] was 0 ng/mL, the concentration at 24 h [6] was 0 ng/mL and the “Brain concentrations quantifiable up to” value (in vivo, iv, 2 mg/kg) was “up to 3 hr”. The “Vss, fold more than normal volume of total body water (0.7 L/kg)” value (in vivo, iv, 2 mg/kg) was 11 fold, the “Brain concentration, individual animal” value (in vivo, iv, 2 mg/kg, 6 h) was 0.00 ng/g and the “Plasma concentration, individual animal” value (in vivo, iv, 2 mg/kg, 6 h) was 0.00 ng/mL. For the same molecule, the “Brain concentration, individual animal” value (in vivo, iv, 2 mg/kg, 12 h) was 0.00 ng/g, the “Plasma concentration, individual animal” value (in vivo, iv, 2 mg/kg, 12 h) was 0.00 ng/mL and the “Brain concentration, individual animal” value (in vivo, iv, 2 mg/kg, 24 h) was 0.00 ng/g. For the same molecule, the “Plasma concentration, individual animal” value (in vivo, iv, 2 mg/kg, 24 h) was 0.00 ng/mL, the concentration at 0.08 h [7] was 392 ng/g and the concentration at 0.35 h [7] was 270 ng/g.
